Experimental data: article PMC9090415, “Discovery of small molecule inhibitors of Plasmodium falciparum apicoplast DNA polymerase” (Journal of Enzyme Inhibition and Medicinal Chemistry, 2022)

Target: P. falciparum apicoplast DNA polymerase (Pf-apPOL) (Plasmodium falciparum, UniProt Q8ILY1)
Experiment: Fluorescence-based high-throughput DNA polymerase assay (molecular beacon), primary screen and dose-response;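 for % inhibition ApPOL 90': test concentration in µM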;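 for % inhibition Apol 40': compound concentration given in µM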;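 for % inhibition apPOL 180': test concentration in µM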
Type: biochemical
Conditions: for DNA Pol: 90 min, 10 µM
Method in brief: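 Single-point screening used 10 µM compound with 20 nM polymerase, 20 nM hairpin substrate and 6 µM dNTPs for 90 min at 25 °C. Confirmatory titrations (2.5–80 µM) followed fluorescence at three times, and IC50 was derived from a fit including a cooperativity term n.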

[1] = 'DNA Pol' of the 186 hits list (primary screen value)

Chain of P. falciparum apicoplast DNA polymerase (Pf-apPOL) (Q8ILY1 entry or part of it): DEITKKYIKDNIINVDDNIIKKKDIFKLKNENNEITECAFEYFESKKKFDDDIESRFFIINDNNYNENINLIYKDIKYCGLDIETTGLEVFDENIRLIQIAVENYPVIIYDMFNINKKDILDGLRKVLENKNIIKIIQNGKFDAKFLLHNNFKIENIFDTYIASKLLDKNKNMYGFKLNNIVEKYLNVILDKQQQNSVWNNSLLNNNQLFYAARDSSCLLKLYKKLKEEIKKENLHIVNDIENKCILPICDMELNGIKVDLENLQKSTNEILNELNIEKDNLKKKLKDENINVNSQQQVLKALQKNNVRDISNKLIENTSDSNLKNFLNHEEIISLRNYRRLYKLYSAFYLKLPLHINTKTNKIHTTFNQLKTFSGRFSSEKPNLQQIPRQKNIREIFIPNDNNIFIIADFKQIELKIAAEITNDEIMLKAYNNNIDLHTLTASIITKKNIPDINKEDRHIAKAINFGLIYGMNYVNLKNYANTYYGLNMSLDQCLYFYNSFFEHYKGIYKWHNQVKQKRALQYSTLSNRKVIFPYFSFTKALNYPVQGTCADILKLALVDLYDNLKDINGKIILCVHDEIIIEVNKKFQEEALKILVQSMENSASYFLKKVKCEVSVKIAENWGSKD

With O=C1c2ccccc2C(=O)N1Oc1ccc([N+](=O)[O-])c([N+](=O)[O-])c1 [Molecule 66, O=N(=O)c1cc(ccc1N(=O)=O)ON1C(=O)c2c(C1=O)cccc2] the “DNA Pol” value [1] was 72, the “DNA Pol” value (DNA Pol (primary screen value)) was 72 and the “% inhibition Apo pol 10'” value (DRC-1, concentration 2.5) was 7.12%. The “% inhibition Apo pol 10'” value (DRC-1, concentration 5) was 12.8299%, the “% inhibition Apo pol 10'” value (DRC-1, concentration 10) was 14.545% and the “% inhibition Apo pol 10'” value (DRC-1, concentration 20) was 24.992%. The “% inhibition Apo pol 10'” value (DRC-1, concentration 40) was 53.6709%, the “% inhibition Apo pol 10'” value (DRC-1, concentration 80) was 72.2964% and the “% inhibition Apol 90'” value (DRC-1, concentration 2.5) was 2.278%. The “% inhibition Apol 90'” value (DRC-1, concentration 5) was 9.738%, the “% inhibition Apol 90'” value (DRC-1, concentration 10) was 13.1271% and the “% inhibition Apol 90'” value (DRC-1, concentration 20) was 22.9091%. For the same compound, the “% inhibition Apol 90'” value (DRC-1, concentration 40) was 49.4397%, the “% inhibition Apol 90'” value (DRC-1, concentration 80) was 69.1434% and the “% inhibition apPOL 180'” value (DRC-1, concentration 2.5) was -1.453%. For the same compound, the “% inhibition apPOL 180'” value (DRC-1, concentration 5) was 3.779%, the “% inhibition apPOL 180'” value (DRC-1, concentration 10) was 7.291% and the “% inhibition apPOL 180'” value (DRC-1, concentration 20) was 17.0641%. The “% inhibition apPOL 180'” value (DRC-1, concentration 40) was 43.6341%, the “% inhibition apPOL 180'” value (DRC-1, concentration 80) was 66.4384% and the “% inhibition Apo pol 5'” value (DRC-2, concentration 2.5) was 1.26%. For the same compound, the “% inhibition Apo pol 5'” value (DRC-2, concentration 5) was 6%, the “% inhibition Apo pol 5'” value (DRC-2, concentration 10) was 12% and the “% inhibition Apo pol 5'” value (DRC-2, concentration 20) was 27%. For the same compound, the “% inhibition Apo pol 5'” value (DRC-2, concentration 40) was 40%, the “% inhibition Apo pol 5'” value (DRC-2, concentration 80) was 51% and the “% inhibition Apol 40'” value (DRC-2, concentration 2.5) was 6.34%. The “% inhibition Apol 40'” value (DRC-2, concentration 5) was 11%, the “% inhibition Apol 40'” value (DRC-2, concentration 10) was 18% and the “% inhibition Apol 40'” value (DRC-2, concentration 20) was 35%. The “% inhibition Apol 40'” value (DRC-2, concentration 40) was 48%, the “% inhibition Apol 40'” value (DRC-2, concentration 80) was 62% and the “% inhibition ApPOL 90'” value (DRC-2, concentration 2.5) was 5%. For the same compound, the “% inhibition ApPOL 90'” value (DRC-2, concentration 5) was 9.49%, the “% inhibition ApPOL 90'” value (DRC-2, concentration 10) was 17% and the “% inhibition ApPOL 90'” value (DRC-2, concentration 20) was 36%. For the same compound, the “% inhibition ApPOL 90'” value (DRC-2, concentration 40) was 50%, the “% inhibition ApPOL 90'” value (DRC-2, concentration 80) was 66% and the “% inhibition apPOL 180'” value (DRC-2, concentration 2.5) was 3%. For the same compound, the “% inhibition apPOL 180'” value (DRC-2, concentration 5) was 5.62%, the “% inhibition apPOL 180'” value (DRC-2, concentration 10) was 13% and the “% inhibition apPOL 180'” value (DRC-2, concentration 20) was 32%. For the same compound, the “% inhibition apPOL 180'” value (DRC-2, concentration 40) was 48% and the “% inhibition apPOL 180'” value (DRC-2, concentration 80) was 68%.

With O=C1C(=Cc2ccccc2O)Oc2ccc(O)cc21 [KU0196475] the “DNA Pol” value ("DNA Pol" of the 186 hits list (screen value)) was 17, the “% inhibition Apo pol 10'” value (DRC-1, concentration 2.5) was -5.1779% and the “% inhibition Apo pol 10'” value (DRC-1, concentration 5) was -7.445%. The “% inhibition Apo pol 10'” value (DRC-1, concentration 10) was 3.3875%, the “% inhibition Apo pol 10'” value (DRC-1, concentration 20) was 10.6699% and the “% inhibition Apo pol 10'” value (DRC-1, concentration 40) was 41.0111%. The “% inhibition Apo pol 10'” value (DRC-1, concentration 80) was 68.8562%, the “% inhibition Apol 90'” value (DRC-1, concentration 2.5) was -1.782% and the “% inhibition Apol 90'” value (DRC-1, concentration 5) was -1.611%. For the same compound, the “% inhibition Apol 90'” value (DRC-1, concentration 10) was 10.1306%, the “% inhibition Apol 90'” value (DRC-1, concentration 20) was 24.1034% and the “% inhibition Apol 90'” value (DRC-1, concentration 40) was 57.9717%. The “% inhibition Apol 90'” value (DRC-1, concentration 80) was 77.3146%, the “% inhibition apPOL 180'” value (DRC-1, concentration 2.5) was 3.033% and the “% inhibition apPOL 180'” value (DRC-1, concentration 5) was 3.658%. The “% inhibition apPOL 180'” value (DRC-1, concentration 10) was 21.7009%, the “% inhibition apPOL 180'” value (DRC-1, concentration 20) was 41.2058% and the “% inhibition apPOL 180'” value (DRC-1, concentration 40) was 72.3539%. For the same compound, the “% inhibition apPOL 180'” value (DRC-1, concentration 80) was 79.2388%, the “% inhibition Apo pol 5'” value (DRC-2, concentration 2.5) was -0.68% and the “% inhibition Apo pol 5'” value (DRC-2, concentration 5) was 0.901%. The “% inhibition Apo pol 5'” value (DRC-2, concentration 10) was 18%, the “% inhibition Apo pol 5'” value (DRC-2, concentration 20) was 28% and the “% inhibition Apo pol 5'” value (DRC-2, concentration 40) was 40%. The “% inhibition Apo pol 5'” value (DRC-2, concentration 80) was 45%, the “% inhibition Apol 40'” value (DRC-2, concentration 2.5) was 0.208% and the “% inhibition Apol 40'” value (DRC-2, concentration 5) was -7.41%. The “% inhibition Apol 40'” value (DRC-2, concentration 10) was 18%, the “% inhibition Apol 40'” value (DRC-2, concentration 20) was 33% and the “% inhibition Apol 40'” value (DRC-2, concentration 40) was 54%. The “% inhibition Apol 40'” value (DRC-2, concentration 80) was 65%, the “% inhibition ApPOL 90'” value (DRC-2, concentration 2.5) was 0% and the “% inhibition ApPOL 90'” value (DRC-2, concentration 5) was -14%. The “% inhibition ApPOL 90'” value (DRC-2, concentration 10) was 15%, the “% inhibition ApPOL 90'” value (DRC-2, concentration 20) was 29% and the “% inhibition ApPOL 90'” value (DRC-2, concentration 40) was 53%. The “% inhibition ApPOL 90'” value (DRC-2, concentration 80) was 66%, the “% inhibition apPOL 180'” value (DRC-2, concentration 2.5) was -3.48% and the “% inhibition apPOL 180'” value (DRC-2, concentration 5) was -88%. The “% inhibition apPOL 180'” value (DRC-2, concentration 10) was 8%, the “% inhibition apPOL 180'” value (DRC-2, concentration 20) was 17% and the “% inhibition apPOL 180'” value (DRC-2, concentration 40) was 45%. The “% inhibition apPOL 180'” value (DRC-2, concentration 80) was 63% and the “DNA Pol” value (primary screen value, DNA Pol) was 17.

With O=C1N=C(Nc2cccc(Cl)c2Cl)S/C1=C\c1ccco1 [Molecule 3, O=C1N=C(S/C/1=C\c1ccco1)Nc1cccc(c1Cl)Cl] the “DNA Pol” value [1] was 74, the “DNA Pol” value (DNA Pol (primary screen value)) was 74 and the “% inhibition Apo pol 10'” value (DRC-1, concentration 2.5) was 26.4621%. For the same compound, the “% inhibition Apo pol 10'” value (DRC-1, concentration 5) was 50.3585%, the “% inhibition Apo pol 10'” value (DRC-1, concentration 10) was 71.7156% and the “% inhibition Apo pol 10'” value (DRC-1, concentration 20) was 70.1447%. For the same compound, the “% inhibition Apo pol 10'” value (DRC-1, concentration 40) was 64.4851%, the “% inhibition Apo pol 10'” value (DRC-1, concentration 80) was 49.9988% and the “% inhibition Apol 90'” value (DRC-1, concentration 2.5) was 14.8677%. For the same compound, the “% inhibition Apol 90'” value (DRC-1, concentration 5) was 38.7366%, the “% inhibition Apol 90'” value (DRC-1, concentration 10) was 64.2373% and the “% inhibition Apol 90'” value (DRC-1, concentration 20) was 68.803%. For the same compound, the “% inhibition Apol 90'” value (DRC-1, concentration 40) was 72.5757%, the “% inhibition Apol 90'” value (DRC-1, concentration 80) was 68.4026% and the “% inhibition apPOL 180'” value (DRC-1, concentration 2.5) was 3.99%. The “% inhibition apPOL 180'” value (DRC-1, concentration 5) was 24.8255%, the “% inhibition apPOL 180'” value (DRC-1, concentration 10) was 52.4106% and the “% inhibition apPOL 180'” value (DRC-1, concentration 20) was 60.3634%. The “% inhibition apPOL 180'” value (DRC-1, concentration 40) was 70.3618%, the “% inhibition apPOL 180'” value (DRC-1, concentration 80) was 71.4479% and the “% inhibition Apo pol 5'” value (DRC-2, concentration 2.5) was 35%. The “% inhibition Apo pol 5'” value (DRC-2, concentration 5) was 38%, the “% inhibition Apo pol 5'” value (DRC-2, concentration 10) was 42% and the “% inhibition Apo pol 5'” value (DRC-2, concentration 20) was 31%. For the same compound, the “% inhibition Apo pol 5'” value (DRC-2, concentration 40) was 11%, the “% inhibition Apo pol 5'” value (DRC-2, concentration 80) was -21% and the “% inhibition Apol 40'” value (DRC-2, concentration 2.5) was 37%. For the same compound, the “% inhibition Apol 40'” value (DRC-2, concentration 5) was 44%, the “% inhibition Apol 40'” value (DRC-2, concentration 10) was 58% and the “% inhibition Apol 40'” value (DRC-2, concentration 20) was 56%. The “% inhibition Apol 40'” value (DRC-2, concentration 40) was 44%, the “% inhibition Apol 40'” value (DRC-2, concentration 80) was 25% and the “% inhibition ApPOL 90'” value (DRC-2, concentration 2.5) was 34%. For the same compound, the “% inhibition ApPOL 90'” value (DRC-2, concentration 5) was 42%, the “% inhibition ApPOL 90'” value (DRC-2, concentration 10) was 59% and the “% inhibition ApPOL 90'” value (DRC-2, concentration 20) was 60%. The “% inhibition ApPOL 90'” value (DRC-2, concentration 40) was 53%, the “% inhibition ApPOL 90'” value (DRC-2, concentration 80) was 40% and the “% inhibition apPOL 180'” value (DRC-2, concentration 2.5) was 22%. For the same compound, the “% inhibition apPOL 180'” value (DRC-2, concentration 5) was 31%, the “% inhibition apPOL 180'” value (DRC-2, concentration 10) was 54% and the “% inhibition apPOL 180'” value (DRC-2, concentration 20) was 62%. The “% inhibition apPOL 180'” value (DRC-2, concentration 40) was 60% and the “% inhibition apPOL 180'” value (DRC-2, concentration 80) was 53%.
